Measured values reported in PubChem BioAssay AID248 (DTP/NCI, 2004).
Toxic doses and inconclusive results are not listed. No stated cut-off is given here; in the data, active means T/C of 150% or more; inactive means T/C below 125%.

System: L1210 leukemia ip in BDF1 mice, survival T/C
Experiment: NCI In Vivo Anticancer Drug Screen. Data for tumor model L1210 Leukemia (intraperitoneal) in B6D2F1 (BDF1) mice
Details: endpoint: mean survival time, higher = longer survival
Outline: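 Survival endpoint. Drug-treated group vs vehicle group, expressed as T divided by C. Tumor passaged by transplantation.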

[1] = dose: 100.0 mg/kg/injection, schedule: Q04DX003 (ip), vehicle: saline
[2] = dose: 200.0 mg/kg/injection, schedule: Q04DX003 (ip), vehicle: saline
[3] = dose: 100.0 mg/kg/injection, schedule: Q04DX002 (ip), vehicle: Klucel (hydroxypropylcellulose) (HPC)
[4] = dose: 200.0 mg/kg/injection, schedule: Q04DX002 (ip), vehicle: Klucel (hydroxypropylcellulose) (HPC)
[5] = dose: 400.0 mg/kg/injection, schedule: Q04DX002 (ip), vehicle: Klucel (hydroxypropylcellulose) (HPC)
[6] = dose: 100.0 mg/kg/injection, schedule: Q01DX009 (ip), vehicle: saline
[7] = dose: 200.0 mg/kg/injection, schedule: Q01DX009 (ip), vehicle: saline
[8] = dose: 100.0 mg/kg/injection, schedule: Q04DX003 (ip), vehicle: saline with Tween-80
[9] = dose: 200.0 mg/kg/injection, schedule: Q04DX003 (ip), vehicle: saline with Tween-80
[10] = dose: 400.0 mg/kg/injection, schedule: Q04DX003 (ip), vehicle: saline with Tween-80
[11] = dose: 50.0 mg/kg/injection, schedule: Q01DX009 (ip), vehicle: saline

Measured: T/C

CCOC(=O)C(C)Oc1ccc([N+](=O)[O-])cc1[N+](=O)[O-] (stereo unspecified)
inactive: dose: 100.0 mg/kg/injection, schedule: Q04DX003 (ip), vehicle: Klucel (hydroxypropylcellulose) (HPC) 95 % of control | dose: 200.0 mg/kg/injection, schedule: Q04DX003 (ip), vehicle: Klucel (hydroxypropylcellulose) (HPC) 90 % of control | dose: 400.0 mg/kg/injection, schedule: Q04DX003 (ip), vehicle: Klucel (hydroxypropylcellulose) (HPC) 98 % of control

CN(C)C(CC(=O)c1ccccc1)C(=O)O (stereo unspecified)
inactive: [1] 94 % of control | [2] 96 % of control

Cc1ccc(S(=O)(=O)OCC2C(COS(=O)(=O)c3ccc(C)cc3)C3C=CC2C32CC2)cc1 (stereo unspecified)
inactive: [3] 105 % of control | [4] 110 % of control | [5] 102 % of control

Nc1ccc(Nc2ccccc2)c(S(=O)(=O)O)c1
inactive: [6] 107 % of control | [1] 105 % of control | [7] 107 % of control | [2] 92 % of control | dose: 400.0 mg/kg/injection, schedule: Q01DX009 (ip), vehicle: saline 110 % of control | dose: 400.0 mg/kg/injection, schedule: Q04DX003 (ip), vehicle: saline 95 % of control

C/C(=N/O)c1ccc2c(c1)/C(=N/O)c1ccccc1-2
inactive: dose: 100.0 mg/kg/injection, schedule: Q01DX001 (ip), vehicle: carboxymethylcellulose (CMC) 109 % of control | dose: 200.0 mg/kg/injection, schedule: Q01DX001 (ip), vehicle: carboxymethylcellulose (CMC) 94 % of control | dose: 400.0 mg/kg/injection, schedule: Q01DX001 (ip), vehicle: carboxymethylcellulose (CMC) 93 % of control

O=P(N=C=S)(N=C=S)N=C=S
inactive: dose: 75.0 mg/kg/injection, schedule: Q01DX001 (ip), vehicle: other 114 % of control

O=C1/C(=C/c2cccc([N+](=O)[O-])c2)CCc2ccccc21
inactive: dose: 100.0 mg/kg/injection, schedule: Q04DX003 (ip), vehicle: acetone 109 % of control | dose: 200.0 mg/kg/injection, schedule: Q04DX003 (ip), vehicle: acetone 101 % of control | dose: 400.0 mg/kg/injection, schedule: Q04DX003 (ip), vehicle: acetone 96 % of control

Fc1cccc(CSC(=S)Nc2ccc(Cl)c(Cl)c2)c1
inactive: dose: 50.0 mg/kg/injection, schedule: Q04DX003 (ip), vehicle: saline with Tween-80 101 % of control | [8] 104 % of control

Cc1ccc(NS(=O)(=O)c2ccc3ccccc3c2)c(C)c1
inactive: dose: 100.0 mg/kg/injection, schedule: Q01DX009 (ip), vehicle: saline with Tween-80 106 % of control | [8] 89 % of control | dose: 200.0 mg/kg/injection, schedule: Q01DX009 (ip), vehicle: saline with Tween-80 112 % of control | [9] 102 % of control | dose: 400.0 mg/kg/injection, schedule: Q01DX009 (ip), vehicle: saline with Tween-80 107 % of control | [10] 89 % of control

On1nnc2ccc(Cl)cc21
inactive: [8] 95 % of control | [9] 95 % of control | [10] 102 % of control

O=C(OCc1ccccc1CN1CCOCC1)c1ccccc1
inactive: [3] 98 % of control | [4] 105 % of control | [5] 96 % of control

N#Cc1cccnc1
inactive: [11] 97 % of control | [6] 110 % of control | [8] 90 % of control | [7] 108 % of control | [9] 102 % of control | [10] 104 % of control

O=C(Nc1ccccc1C(=O)N/N=C/c1ccccc1Cl)c1ccccc1Cl
inactive: dose: 100.0 mg/kg/injection, schedule: Q01DX009 (ip), vehicle: Klucel (hydroxypropylcellulose) (HPC) 90 % of control | dose: 200.0 mg/kg/injection, schedule: Q01DX009 (ip), vehicle: Klucel (hydroxypropylcellulose) (HPC) 103 % of control | dose: 400.0 mg/kg/injection, schedule: Q01DX009 (ip), vehicle: Klucel (hydroxypropylcellulose) (HPC) 86 % of control

CCCCc1ccc(C(=O)O)nc1.[Cu+2]
inactive: dose: 5.0 mg/kg/injection, schedule: Q01DX001 (ip), vehicle: saline 97 % of control | dose: 10.0 mg/kg/injection, schedule: Q01DX001 (ip), vehicle: saline 105 % of control | dose: 20.0 mg/kg/injection, schedule: Q01DX001 (ip), vehicle: saline 106 % of control

COCC1OC(OC)C(NC(C)=O)C(OC)C1OC (stereo unspecified)
inactive: dose: 100.0 mg/kg/injection, schedule: Q01DX001 (ip), vehicle: saline 101 % of control | dose: 200.0 mg/kg/injection, schedule: Q01DX001 (ip), vehicle: saline 101 % of control | dose: 400.0 mg/kg/injection, schedule: Q01DX001 (ip), vehicle: saline 96 % of control

Nc1ncnc2nc(-c3cccc([N+](=O)[O-])c3)[nH]c12
inactive: dose: 50.0 mg/kg/injection, schedule: Q01DX001 (ip), vehicle: Klucel (hydroxypropylcellulose) (HPC) 100 % of control | dose: 100.0 mg/kg/injection, schedule: Q01DX001 (ip), vehicle: Klucel (hydroxypropylcellulose) (HPC) 91 % of control | dose: 200.0 mg/kg/injection, schedule: Q01DX001 (ip), vehicle: Klucel (hydroxypropylcellulose) (HPC) 88 % of control

c1ccc(Nc2ncc3cnccn23)cc1
inactive: dose: 25.0 mg/kg/injection, schedule: Q01DX009 (ip), vehicle: saline 96 % of control | [11] 90 % of control | [6] 97 % of control
